Results on three molecules are retold here after patent publication US9272978B2, “Hydroxy acid ester compound of substituted phenol, preparation method and medical use thereof” (West China Hospital, Sichuan University, priority 2010, dated 2016).

For series [1] the following is noted: disclosed in WO200213810; cited from earlier work.
The conditions of series [2]: disclosed in WO200213810; cited from earlier work. The source holds these as a separate data set.
The conditions of series [3]: mouse, rat or rabbit plasma, 37° C., 10 mg/ml solution, 0 min to 4 h, HPLC. As for the experimental part:
Three parallel solutions of propofol hydroxybutyrate of Example 1 with a concentration of 10 mg/ml were prepared, added into and mixed with the mouse, rat or rabbit plasma, which was pre-placed in water bath (37° C.), respectively.
Three parallel solutions of propofol hydroxyvalerate of Example 3 with a concentration of 10 mg/ml were prepared, added into and mixed with mouse, rat or rabbit plasma, which was pre-placed in water bath (37° C.), respectively.

The subject of the next series is Kunming mice. Particulars: tail vein injection; for disappearance time of FRR (onset time) / recovery time (recovery of FRR): during determination of ED50; for Median effective dose (ED50), disappearance of forepaw righting reflex: up-and-down method. As for the experimental part: (§1) 60 Kunming mice with half males and half females were randomly divided into the drug test group (propofol hydroxybutyrate of the present invention) (n=30) and the Diprivan™ control group (positive control drug Diprivan™) (n=30). Median effective doses (ED50) of the substituted phenol hydroxy acid ester and Diprivan™ were determined by the up-and-down method. In the test, the mice were injected with the drugs through the tail veins, with the disappearance of the forepaw righting reflex (FRR) of the mice as a judgment index of the end point of anesthesia; the recovery of FRR of the mice as an index of recovery from anesthesia.
as §1, with “hydroxyvalerate” for “hydroxybutyrate”, “FRR” for “the forepaw righting reflex (FRR)”

As for `CC(C)c1cccc(C(C)C)c1OC(=O)CCC(=O)[O-].[Na+]` [propofol succinic acid monoester sodium salt], the “stability in aqueous solution” value in series [1] is on record as “unstable in aqueous solution”. Further, the “water-solubility” value in series [2] is recorded as “high water-solubility”.
Regarding `CC(C)c1cccc(C(C)C)c1OC(=O)CCCO` [propofol hydroxybutyrate, propofol ω-hydroxybutyrate], the “in vitro decomposition in the plasma into the active compound propofol” value in series [3] is “can be rapidly decomposed into the active compound propofol”. For the same molecule, in the series on Kunming mice, the anesthetic effect entry is “definite and reversible anesthetic effect”; the “disappearance time of FRR (onset time)” value was found to be 45.3 ± 12.3 s; the “recovery time (recovery of FRR)” value was 235.6 ± 67.9 s; the “Median effective dose (ED50), disappearance of forepaw righting reflex” value was 52 mg/kg.
As for `CC(C)c1cccc(C(C)C)c1OC(=O)CCCCO` [propofol hydroxyvalerate, propofol ω-hydroxyvalerate], the “in vitro decomposition in the plasma into the active compound propofol” value in series [3] is given as “can be rapidly decomposed into the active compound propofol”. In the series on Kunming mice, the “disappearance time of FRR (onset time)” value stood at 46.1 ± 9.5 s; the “recovery time (recovery of FRR)” value stood at 256.1 ± 61.2 s; the “Median effective dose (ED50), disappearance of forepaw righting reflex” value stood at 60 mg/kg.
